Laboratory results from paper PMC7689250, “Synthetic Peptide Libraries Designed From a Minimal Alpha-Helical Domain of AS-48-Bacteriocin Homologs Exhibit Potent Antibacterial Activity” (Frontiers in Microbiology, 2020).
Residues, ends and D or L forms follow the SMILES beside them.

How the values were obtained:
S. pyogenes (M1) = format: cell-based, Streptococcus pyogenes; conditions: for MBC: M1; for MIC: M1, 16 h
Procedure: (§1) Peptides were screened against Escherichia coli (BL21), Streptococcus pyogenes (M1T1 5448, hereby referred to as M1), Pseudomonas aeruginosa (PAO1), and Staphylococcus aureus (USA300). Overnight bacterial cultures were grown in optimal media for each species: Luria-Bertani (LB) broth for E. coli, P. aeruginosa, and S. aureus, and Todd-Hewitt (TH) broth for S. pyogenes. Cultures were pelleted and re-suspended in Mueller-Hinton (MH) broth for peptide screens or minimal inhibitory concentration (MIC) assays, with 1 × 10^6 CFU/mL bacteria added per well ([Wiegand et al., 2008]). MICs for each parent peptide were identified against each bacterial strain as previously described ([Fields et al., 2018]). Members of each peptide library were screened against each bacterial strain at half of the MIC of the corresponding parent peptide to identify library members with increased antimicrobial activity relative to the parent peptide. […] Minimal bactericidal concentrations (MBCs) were determined following the respective MIC assays by plating aliquots from wells corresponding to each peptide concentration from the 96-well plate used for the MIC on species-appropriate agar. Plates were incubated at 37°C overnight, and MBCs were identified as the lowest concentrations of peptide at which no colonies were obtained. A Synergy H1 Microplate Reader (BioTek, Winooski, VT, United States) was used to determine the MICs and identify peptides with greater antimicrobial activity than the corresponding parent peptide by measuring OD 600 of the bacterial cultures in 96-well microtiter plates.

S. aureus (USA300) = format: cell-based, Staphylococcus aureus; conditions: for MBC: USA300; for MIC: USA300, 16 h
Procedure: as §1

P. aeruginosa (PAO1) = format: cell-based, Pseudomonas aeruginosa; conditions: for MBC: PAO1; for MIC: PAO1, 16 h
Procedure: as §1

E. coli (BL21) = format: cell-based, Escherichia coli; conditions: for MBC: BL21; for MIC: BL21, 16 h
Procedure: as §1

Structure (SMILES)	MIC (S. pyogenes (M1))	MIC (S. aureus (USA300))	MIC (P. aeruginosa (PAO1))	MIC (E. coli (BL21))	MBC (S. pyogenes (M1))	MBC (S. aureus (USA300))	MBC (P. aeruginosa (PAO1))	MBC (E. coli (BL21))
CC[C@H](C)[C@H](NC(=O)[C@H](CCCCN)NC(=O)[C@H](CCCCN)NC(=O)[C@H](CCCCN)NC(=O)[C@H](CC(C)C)NC(=O)[C@H](Cc1ccccc1)NC(=O)[C@H](CCC(N)=O)NC(=O)[C@H](CCCNC(=N)N)NC(=O)[C@@H](NC(=O)[C@@H](NC(=O)[C@H](CCC(=O)O)NC(=O)[C@H](CCCCN)NC(=O)CNC(=O)[C@H](C)N)[C@@H](C)O)[C@@H](C)CC)C(=O)N[C@@H](CCC(N)=O)C(=O)N[C@@H](CCC(=O)O)C(=O)N[C@@H](CCCCN)C(=O)NCC(=O)N[C@@H](CCCCN)C(=O)N[C@@H](CCCNC(=N)N)C(=O)N[C@@H](C)C(=O)N[C@H](C(=O)N[C@H](C(=O)N[C@@H](C)C(=O)N[C@@H](Cc1c[nH]c2ccccc12)C(=O)O)[C@@H](C)CC)[C@@H](C)O [Syn-larvacin-1] (H-AGKETIRQFLKKKIQEKGKRATIAW-OH; N-terminus and C-terminus assumed)	8 µM	>128 µM	>128 µM	32 µM	64 µM	>128 µM	>128 µM	>128 µM
CC[C@H](C)[C@H](NC(=O)[C@H](CCCCN)NC(=O)[C@H](CCCCN)NC(=O)[C@H](Cc1c[nH]c2ccccc12)NC(=O)[C@H](CCC(=O)O)NC(=O)[C@H](CC(N)=O)NC(=O)[C@@H](NC(=O)[C@@H](NC(=O)[C@H](CCCCN)NC(=O)[C@H](CCCCN)NC(=O)[C@H](CC(C)C)NC(=O)[C@H](CCCNC(=N)N)NC(=O)[C@H](CC(N)=O)NC(=O)[C@H](Cc1ccccc1)NC(=O)[C@@H](NC(=O)[C@H](CCCCN)NC(=O)[C@H](CCC(=O)O)NC(=O)[C@@H](NC(=O)CNC(=O)[C@H](C)N)[C@@H](C)O)[C@@H](C)CC)[C@@H](C)O)[C@@H](C)CC)C(=O)N[C@@H](C)C(=O)N[C@@H](CCCCN)C(=O)N[C@@H](CCCNC(=N)N)C(=O)N[C@@H](C)C(=O)N[C@@H](Cc1c[nH]c2ccccc12)C(=O)O [Syn-larvacin-48] (H-AGTEKIFNRLKKTINEWKKIAKRAW-OH; N-terminus and C-terminus assumed)	8 µM	8 µM	16 µM	4 µM	8 µM	8 µM	32 µM	4 µM
CC[C@H](C)[C@H](NC(=O)[C@H](Cc1ccccc1)NC(=O)[C@H](C)NC(=O)[C@H](CCCCN)NC(=O)[C@H](CCCCN)NC(=O)CNC(=O)[C@H](CCCNC(=N)N)NC(=O)[C@H](CCCCN)NC(=O)[C@H](CCCNC(=N)N)NC(=O)[C@H](CC(C)C)NC(=O)[C@H](CCC(=O)O)NC(=O)[C@H](CCC(=O)O)NC(=O)[C@H](CCCCN)NC(=O)[C@H](CC(C)C)NC(=O)[C@H](Cc1ccc(O)cc1)NC(=O)[C@H](CC(C)C)NC(=O)[C@@H](NC(=O)[C@H](CC(C)C)NC(=O)[C@H](C)NC(=O)[C@H](CCC(N)=O)NC(=O)[C@H](CCCNC(=N)N)NC(=O)CNC(=O)[C@H](C)N)[C@@H](C)O)C(=O)N[C@@H](C)C(=O)N[C@@H](Cc1c[nH]c2ccccc12)C(=O)O [Syn-xiamencin-1] (H-AGRQALTLYLKEELRKRGKKAFIAW-OH; N-terminus and C-terminus assumed)	16 µM	>128 µM	>128 µM	32 µM	16 µM	>128 µM	>128 µM	32 µM

Second part, led by results:

MIC (S. pyogenes (M1))	MIC (S. aureus (USA300))	MIC (P. aeruginosa (PAO1))	MIC (E. coli (BL21))	Structure (SMILES)	MBC (S. pyogenes (M1))	MBC (S. aureus (USA300))	MBC (P. aeruginosa (PAO1))	MBC (E. coli (BL21))
0.25 µM	8 µM	64 µM	1 µM	CC[C@H](C)[C@H](NC(=O)[C@H](CCCCN)NC(=O)[C@H](CCCCN)NC(=O)CNC(=O)[C@H](CCC(=O)O)NC(=O)[C@H](CCC(N)=O)NC(=O)[C@@H](NC(=O)[C@H](Cc1c[nH]c2ccccc12)NC(=O)[C@H](CCCCN)NC(=O)[C@H](CCCCN)NC(=O)[C@H](CC(C)C)NC(=O)[C@H](CCCNC(=N)N)NC(=O)[C@H](CCC(N)=O)NC(=O)[C@H](Cc1ccccc1)NC(=O)[C@@H](NC(=O)[C@H](CCCCN)NC(=O)[C@H](CCC(=O)O)NC(=O)[C@@H](NC(=O)CNC(=O)[C@H](C)N)[C@@H](C)O)[C@@H](C)CC)[C@@H](C)CC)C(=O)N[C@@H](C)C(=O)N[C@@H](CCCCN)C(=O)N[C@@H](CCCNC(=N)N)C(=O)N[C@@H](C)C(=O)N[C@@H](Cc1c[nH]c2ccccc12)C(=O)O [Syn-larvacin-31] (H-AGTEKIFQRLKKWIQEGKKIAKRAW-OH; N-terminus and C-terminus assumed)	0.25 µM	8 µM	128 µM	1 µM
8 µM	>128 µM	16 µM	8 µM	CC[C@H](C)[C@H](NC(=O)[C@H](CCC(=O)O)NC(=O)[C@H](CCCNC(=N)N)NC(=O)[C@H](CCCNC(=N)N)NC(=O)[C@H](CC(C)C)NC(=O)[C@H](Cc1ccc(O)cc1)NC(=O)[C@H](C)NC(=O)[C@H](CCCCN)NC(=O)[C@@H](NC(=O)[C@@H](NC(=O)[C@H](CCC(N)=O)NC(=O)[C@H](CCCNC(=N)N)NC(=O)CNC(=O)[C@H](C)N)[C@@H](C)O)[C@@H](C)CC)C(=O)N[C@@H](CCCNC(=N)N)C(=O)N[C@@H](CCCCN)C(=O)N[C@@H](CCCNC(=N)N)C(=O)NCC(=O)N[C@@H](CCCNC(=N)N)C(=O)N[C@@H](CCCCN)C(=O)N[C@@H](C)C(=O)N[C@H](C(=O)N[C@H](C(=O)N[C@@H](C)C(=O)N[C@@H](Cc1c[nH]c2ccccc12)C(=O)O)[C@@H](C)CC)C(C)C [Syn-sordellicin-1] (H-AGRQTIKAYLRREIRKRGRKAVIAW-OH; N-terminus and C-terminus assumed)	8 µM	>128 µM	16 µM	8 µM
2 µM	32 µM	16 µM	1 µM	CC[C@H](C)[C@H](NC(=O)[C@H](CCCNC(=N)N)NC(=O)[C@H](C)NC(=O)[C@H](CCCCN)NC(=O)[C@H](CCCNC(=N)N)NC(=O)CNC(=O)[C@@H](NC(=O)[C@H](CCCCN)NC(=O)[C@H](CCCNC(=N)N)NC(=O)[C@@H](NC(=O)[C@H](CCC(=O)O)NC(=O)[C@H](CCCNC(=N)N)NC(=O)[C@H](CCCNC(=N)N)NC(=O)[C@H](CC(C)C)NC(=O)[C@H](Cc1ccc(O)cc1)NC(=O)[C@H](C)NC(=O)[C@H](CCCCN)NC(=O)[C@@H](NC(=O)[C@H](Cc1c[nH]c2ccccc12)NC(=O)[C@H](CCC(N)=O)NC(=O)[C@H](CCCNC(=N)N)NC(=O)CNC(=O)[C@H](C)N)[C@@H](C)CC)[C@@H](C)CC)C(C)C)C(=O)N[C@@H](C)C(=O)N[C@@H](Cc1c[nH]c2ccccc12)C(=O)O [Syn-sordellicin-45] (H-AGRQWIKAYLRREIRKVGRKARIAW-OH; N-terminus and C-terminus assumed)	2 µM	32 µM	32 µM	1 µM
